How the values were obtained:
OVCAR3 p-RB = assay: pRB ICW assay in OVCAR3 cells; type: cell-based; conditions: Homo sapiens, OVCAR-3, incubated with compound for 2 hours
How it was run: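 OVCAR3 cells were treated 2 h at 37 °C with a 9-point half-log compound series, in duplicate, with 10 μM reference compound as maximum inhibition. Cells were then fixed, permeabilized and stained with anti-phospho-RB plus DRAQ5. In-cell western intensities were read at 700/800 nm on Odyssey CLx.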

CDK2/Cyclin E2 = CDK2/Cyclin E2 (Homo sapiens, UniProt P24941); assay: CDK2/CyclinE2 enzymatic activity assay (TR-FRET); type: biochemical; conditions: ATP 1 mM final, read-out: CDK2_E1 IC50
How it was run: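 Insect-cell-expressed CDK2/Cyclin E2 (1 nM), ULight-4E-BP1 (50 nM) and ATP (1 mM) in HEPES pH 7.4 buffer were preincubated 20 min at RT with compound (9-dose, 3-fold), started with 10 mM MgCl2 and run 45 min at 37 °C. EDTA/Eu-anti-P-4E-BP1 stop, 60 min TR-FRET detection; IC50 from 4-parameter Hill fit.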

CDK4/Cyclin D1 = biological target: T1, CDK4/Cyclin D1 (Homo sapiens, UniProt P11802); assay: CDK4/CyclinD1 enzymatic activity assay (TR-FRET); type: biochemical; conditions: ATP 2 mM final, read-out: CDK4_D1 IC50
T1 construct: purchased ProQinase; host or cells: insect cell
T1 sequence (P11802 whole entry): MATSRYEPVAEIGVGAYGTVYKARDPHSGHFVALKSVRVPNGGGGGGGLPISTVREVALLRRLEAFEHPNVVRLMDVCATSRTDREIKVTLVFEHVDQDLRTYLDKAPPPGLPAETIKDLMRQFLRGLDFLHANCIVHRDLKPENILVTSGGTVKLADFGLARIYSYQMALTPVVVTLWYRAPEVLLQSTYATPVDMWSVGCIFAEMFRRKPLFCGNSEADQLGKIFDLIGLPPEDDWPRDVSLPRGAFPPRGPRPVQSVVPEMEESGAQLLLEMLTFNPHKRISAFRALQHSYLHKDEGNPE
T1 sequence (P24385 whole entry partner): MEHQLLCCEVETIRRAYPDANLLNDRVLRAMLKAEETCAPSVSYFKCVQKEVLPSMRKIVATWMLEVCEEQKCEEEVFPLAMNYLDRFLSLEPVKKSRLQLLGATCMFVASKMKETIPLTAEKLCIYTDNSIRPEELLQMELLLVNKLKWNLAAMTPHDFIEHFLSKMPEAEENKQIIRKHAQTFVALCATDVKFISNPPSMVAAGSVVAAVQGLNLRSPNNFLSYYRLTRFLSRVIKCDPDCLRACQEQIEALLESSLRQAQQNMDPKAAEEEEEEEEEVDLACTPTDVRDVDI
How it was run: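 Insect-cell-expressed CDK4/Cyclin D1 (1 nM) phosphorylated ULight-4E-BP1 peptide (100 nM) at 2 mM ATP in HEPES pH 7.4 buffer after 20 min compound preincubation. Reaction started with 10 mM MgCl2, ran 45 min at 37 °C, then EDTA quench and Eu-anti-phospho-4E-BP1 TR-FRET detection. IC50 from 9-point 3-fold dilutions, 4-parameter fit.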

SMILES	IC50 (OVCAR3 p-RB) [nM]	IC50 (CDK2/Cyclin E2) [nM]	IC50 (CDK4/Cyclin D1) [nM]
CC(O)c1ncc(-c2nc(N[C@H]3CCN(S(=O)(=O)c4cnn(C)c4)C[C@H]3C)ncc2C(F)(F)F)s1 (stereo partly drawn) [Example 102, 1-(5-(2-(((3R,4S)-3-methyl-1-((1-methyl-1H-pyrazol-4-yl)sulfonyl)piperidin-4-yl)amino)-5-(trifluoromethyl)pyrimidin-4-yl)thiazol-2-yl)ethan-1-ol]	100 to 1000	≤ 100	100 to 1000
Cc1cc(CO)ccc1-c1nc(C)c(-c2nc(NC3CCN(S(C)(=O)=O)CC3)ncc2F)s1 [Example 15, [4-[5-[5-fluoro-2-[(1-methylsulfonylpiperidin-4-yl)amino]pyrimidin-4-yl]-4-methyl-1,3-thiazol-2-yl]-3-methylphenyl]methanol]	> 1000	≤ 100	100 to 1000
Cn1cnc(S(=O)(=O)N2CC[C@H](Nc3ncc(C(F)(F)F)c(-c4cnc(CC(C)(C)O)s4)n3)[C@H](F)C2)c1 [Example 74, 1-(5-(2-(((3R,4S)-3-fluoro-1-((1-methyl-1H-imidazol-4-yl)sulfonyl)piperidin-4-yl)amino)-5-(trifluoromethyl)pyrimidin-4-yl)thiazol-2-yl)-2-methylpropan-2-ol]	≤ 100	≤ 100	≤ 100
CC(O)C(C)Nc1ncc(-c2nc(NC3CCN(S(C)(=O)=O)CC3)ncc2C(F)(F)F)s1 (stereo not drawn) [Example 30, 3-[[5-[2-[(1-methylsulfonylpiperidin-4-yl)amino]-5-(trifluoromethyl)pyrimidin-4-yl]-1,3-thiazol-2-yl]amino]butan-2-ol]	≤ 100	≤ 100	≤ 100
CS(=O)(=O)N1CCC(Nc2ncc(C(F)(F)F)c(-c3cnc(C4CCOCC4)s3)n2)CC1 [Example 3, N-(1-methylsulfonylpiperidin-4-yl)-4-[2-(oxan-4-yl)-1,3-thiazol-5-yl]-5-(trifluoromethyl)pyrimidin-2-amine]	100 to 1000	≤ 100	≤ 100
Cc1ncc(-c2nc(NC3CCN(S(C)(=O)=O)CC3)ncc2C(F)(F)F)s1 [Example 19, N-(1-methylsulfonylpiperidin-4-yl)-4-(2-methyl-1,3-thiazol-5-yl)-5-(trifluoromethyl)pyrimidin-2-amine]	100 to 1000	≤ 100	≤ 100
[2H]C([2H])([2H])Nc1ncc(-c2nc(NC3CCN(S(C)(=O)=O)CC3)ncc2C(F)(F)F)s1 [Example 39, 5-[2-[(1-Methylsulfonylpiperidin-4-yl)amino]-5-(trifluoromethyl)pyrimidin-4-yl]-N-(trideuteriomethyl)-1,3-thiazol-2-amine]	100 to 1000	≤ 100	≤ 100
Cc1cc(CO)ccc1-c1ncc(-c2nc(NC3CCN(S(C)(=O)=O)CC3)ncc2C(F)(F)F)s1 [Example 12, [3-methyl-4-[5-[2-[(1-methylsulfonylpiperidin-4-yl)amino]-5-(trifluoromethyl)pyrimidin-4-yl]-1,3-thiazol-2-yl]phenyl]methanol]	100 to 1000	≤ 100	≤ 100
CS(=O)(=O)N1CCC(Nc2ncc(C(F)(F)F)c(-c3cnc(NC4COC4)s3)n2)CC1 [Example 38, 5-[2-[(1-Methylsulfonylpiperidin-4-yl)amino]-5-(trifluoromethyl)pyrimidin-4-yl]-N-(oxetan-3-yl)-1,3-thiazol-2-amine]	100 to 1000	≤ 100	≤ 100
CC(C)(O)Cc1ncc(-c2nc(NC3CCN(S(=O)(=O)c4cnn(CC#N)c4)CC3)ncc2C(F)(F)F)s1 [Example 77]	≤ 100	≤ 100	≤ 100
CC(C)Oc1ncc(-c2nc(NC3CCN(S(C)(=O)=O)CC3)ncc2C(F)(F)F)s1 [Example 25, N-(1-Methylsulfonylpiperidin-4-yl)-4-(2-propan-2-yloxy-1,3-thiazol-5-yl)-5-(trifluoromethyl)pyrimidin-2-amine]	100 to 1000	≤ 100	≤ 100

Reference: US20240018136A1, “CDK Inhibitors And Their Use As Pharmaceuticals” (Prelude Therapeutics, Incorporated, priority 2022, published 2024)
